This note sets out measurements from PMC6930500, “Structure–Activity Relationships of 7-Substituted Dimethyltyrosine-Tetrahydroisoquinoline Opioid Peptidomimetics” (Molecules, 2019).

Assay [1] has as its target T1, human DOR (Homo sapiens, UniProt P41143).
T1 construct: expressed in transfected cells; cell lines provided by Professor Lawrence Toll
Description: [3H]-diprenorphine competitive displacement binding, DOR. To be noted: membranes from CHO cells expressing human DOR; mean (SEM), n>=3 in duplicate. The procedure:
(§1) Each novel compound was evaluated for binding to and stimulation of KOR, MOR, and DOR. Binding affinity (Ki) was determined by competitive displacement of [^3H]-diprenorphine, a non-selective opioid receptor antagonist with similar affinity for each of the three receptors. Potency (EC50) and efficacy, expressed as percent stimulation compared to a standard agonist at each receptor, were determined by a [^35S]-GTPγS binding assay.
(§2) Membranes prepared from transfected Chinese Hamster Ovary cells stably expressing human KOR, human MOR, or human DOR were used for all assays. Cells were grown to confluence at 37 °C in 5% CO2 in 1:1 DMEM:F12 media with 10% v/v fetal bovine serum and 5% v/v penicillin/streptomycin. Membranes were prepared by washing confluent cells three times with ice cold phosphate-buffered saline (0.9% NaCl, 0.61 mM Na2HPO4, 0.38 mM KH2PO4, pH 7.4). Cells were detached from the plates by incubation in warm harvesting buffer (20 mM HEPES, 150 mM NaCl, 0.68 mM EDTA, pH 7.4) and pelleted by centrifugation at 200× g for 3 min. The cell pellet was suspended in ice-cold 50 mM Tris-HCl buffer, pH 7.4 and homogenized with a Tissue Tearor (Biospec Products, Inc, distributed by Cole-Parmer, Vernon Hills, IL, USA) for 20 s at setting 4. The homogenate was centrifuged at 20,000× g for 20 min at 4 °C, and the pellet was rehomogenized in 50 mM Tris-HCl pH 7.4 with a Tissue Tearor for 10 s at setting 2, followed by recentrifugation. The final pellet was resuspended in 50 mM Tris-HCl pH 7.4 and frozen in aliquots at −80 °C. Protein concentration was determined via Pierce BCA protein assay kit using bovine serum albumin as the standard.
(§3) Binding affinities for all test compounds at KOR, MOR, and DOR were determined by competitive displacement of [^3H]-diprenorphine as previously reported. In a 96-well plate format, cell membranes (5–10 µg of protein) and [^3H]-diprenorphine (0.2 nM) were incubated in Tris-HCl buffer (50 mM, pH 7.4) with various concentrations of test compound at 25 °C for 1 h, allowing the mixture to reach equilibrium. Nonspecific binding was determined using the opioid antagonist naloxone (10 µM), and total binding was determined using vehicle in the absence of competitive ligand. After incubation, membranes were filtered through Whatman GF/C 1.2 micron glass fiber filters and washed with 50 mM Tris-HCl buffer. The radioactivity remaining on the filters was then quantified by liquid scintillation counting after saturation with EcoLume liquid scintillation cocktail in a Microbeta 2450 (Perkin-Elmer, Waltham, MA, USA). Binding affinity (Ki) values were calculated using the Cheng–Prusoff equation via nonlinear regression analysis using GraphPad Prism software from at least three separate binding assays performed in duplicate.

Assay [2] has as its target T1, human DOR. Description: [35S]-GTPγS binding stimulation, DOR. Type of assay: biochemical. To be noted: mean (SEM), * n = 2; for EC50 DOR / EC50: CHO-human DOR membranes, dns = does not stimulate, average maximal stimulation <10% at up to 10 µM; for % Stimulation DOR: versus 10 µM standard agonist DPDPE, dns = average maximal stimulation <10% at up to 10 µM. The procedure:
as §1, §2
(§4) Agonist stimulation of KOR, MOR, and DOR by all test compounds was determined by [^35S]-guanosine 5′-O-[γ-thio]triphosphate ([^35S]-GTPγS) binding assays as previously reported. In a 96-well plate format, membranes from cells expressing opioid receptors as described above (10 µg of protein), [^35S]-GTPγS (0.1 nM), and guanosine diphosphate (30 µM) were incubated in GTPγS buffer (50 mM Tris-HCl, 100 mM NaCl, 5 mM MgCl2, 1 mM EDTA, pH 7.4) with various concentrations of test compound at 25 °C for 1 h. Basal stimulation was determined by incubation in the absence of any ligand. After incubation, membranes were filtered through Whatman GF/C 1.2 micron glass fiber filters and washed with GTPγS buffer with no EDTA. The radioactivity remaining on the filters was then quantified by liquid scintillation counting after saturation with EcoLume liquid scintillation cocktail in a Perkin-Elmer Microbeta 2450. Data are reported as percent stimulation compared to the effects of 10 µM standard agonists—U69,593 (KOR), DAMGO (MOR), or DPDPE (DOR). Percent stimulation and EC50 values were determined via nonlinear regression analysis using GraphPad Prism software from at least three separate assays performed in duplicate. Efficacy is expressed as percent stimulation relative to standard agonists.
(In general: GTPγS resists hydrolysis and so accumulates on activated G proteins.)

In assay [3] the target is T2, human MOR (Homo sapiens, UniProt P35372).
T2 construct: expressed in transfected cells; cell lines provided by Professor Lawrence Toll
Nature of the assay: [3H]-diprenorphine competitive displacement binding, MOR. To be noted: for Ki: membranes from CHO cells expressing human MOR, mean (SEM), n>=3 in duplicate. The protocol: as §1, §2, §3

Assay [4] concerns the target T3, human KOR (Homo sapiens, UniProt P41145).
T3 construct: expressed in transfected cells; cell lines provided by Professor Lawrence Toll
Description: [3H]-diprenorphine competitive displacement binding, KOR. To be noted: for Ki: membranes from CHO cells expressing human KOR, mean (SEM), n>=3 in duplicate. The protocol:
as §1, §2, §3

In assay [5] the target is T3, human KOR. Nature of the assay: [35S]-GTPγS binding stimulation, KOR. Type of assay: biochemical. The conditions noted are these: mean (SEM); for EC50 / EC50 KOR: CHO-human KOR membranes, * n = 2, dns = does not stimulate, average maximal stimulation <10% at up to 10 µM; for Emax / % Stimulation KOR: versus 10 µM standard agonist U69,593, dns = average maximal stimulation <10% at up to 10 µM. The protocol: as §1, §2, §4

Assay [6] has as its target T2, human MOR. Nature of the assay: [35S]-GTPγS binding stimulation, MOR. The format is biochemical. The conditions noted are these: mean (SEM), * n = 2; for EC50: CHO-human MOR membranes, dns = does not stimulate, average maximal stimulation <10% at up to 10 µM; for Emax: versus 10 µM standard agonist DAMGO, dns = average maximal stimulation <10% at up to 10 µM. The procedure:
as §1, §2, §4

Usually Ki stands for a dissociation constant, usually derived from enzyme kinetics or from competition with a known ligand. A higher Ki goes with lower affinity. One may read the EC50 as the concentration that produces a half-maximal response. A lower EC50 goes with an effect from little substance. One may read the Emax as the maximal effect, on the per cent scale that the assay sets. For the molecule `Cc1cc(O)cc(C)c1C[C@H](N)C(=O)N1CCc2ccc(Cc3cccnc3)cc2C1` [Compound 8j, (S)-2-amino-3-(4-hydroxy-2,6-dimethylphenyl)-1-(7-(pyridin-3-ylmethyl)-3,4-dihydroisoquinolin-2(1H)-yl)propan-1-one], the Ki at human DOR [1] turned out to be 1.5 nM; on human MOR [3], 5.4 nM; at human KOR [4], 56 nM. Besides, the “EC50 DOR” value at human DOR [2] is reported as “dns”. The “% Stimulation DOR” value on human DOR [2] is reported as “dns”. For the same molecule, the results for the 50% effective concentration (EC50) on human KOR [5] and at human MOR [6] were 988 nM and 145 nM, respectively. In addition, the maximum response (Emax) at human KOR [5] is 40%; on human MOR [6] it was 23%.

Take `COc1cccc(Cc2ccc3c(c2)CN(C(=O)[C@@H](N)Cc2c(C)cc(O)cc2C)CC3)c1` [Compound 8e, (S)-2-amino-3-(4-hydroxy-2,6-dimethylphenyl)-1-(7-(3-methoxybenzyl)-3,4-dihydroisoquinolin-2(1H)-yl)propan-1-one]: the figures for the inhibition constant (Ki) on human DOR [1], on human MOR [3] and at human KOR [4] were 1.7 nM, 2.7 nM and 3 nM, respectively. Moreover, the “EC50 DOR” value on human DOR [2] was “dns”. On human DOR [2], the “% Stimulation DOR” value is reported as “dns”. The half-maximal effective concentration (EC50) on human KOR [5] is 148 nM; at human MOR [6] it was 24 nM. Besides, the maximal effect (Emax) on human KOR [5] worked out at 74%; on human MOR [6], 48%.

Turning to `Cc1cc(O)cc(C)c1C[C@H](N)C(=O)N1CCc2ccc(Cc3cccc(O)c3)cc2C1` [Compound 8f, (S)-2-amino-3-(4-hydroxy-2,6-dimethylphenyl)-1-(7-(3-hydroxybenzyl)-3,4-dihydroisoquinolin-2(1H)-yl)propan-1-one], the Ki on human DOR [1] worked out at 1.4 nM; on human MOR [3], 0.6 nM; on human KOR [4] it was 0.8 nM. At human DOR [2], the “EC50 DOR” value is given as “dns *”. The “% Stimulation DOR” value at human DOR [2] is on record as “dns *”. Besides, the values for the EC50 on human KOR [5] and at human MOR [6] were 148 nM and 18 nM, respectively. The maximal effect (Emax) was 83% on human KOR [5] and 81% at human MOR [6].

For the molecule `Cc1cc(O)cc(C)c1C[C@H](N)C(=O)N1CCc2ccc(Cc3ccccc3O)cc2C1` [Compound 8b, (S)-2-amino-3-(4-hydroxy-2,6-dimethylphenyl)-1-(7-(2-hydroxybenzyl)-3,4-dihydroisoquinolin-2(1H)-yl)propan-1-one], the figures for the Ki at human DOR [1], at human MOR [3] and on human KOR [4] were 2.5 nM, 1.2 nM and 0.32 nM, respectively. Besides, at human DOR [2], the “EC50 DOR” value was “dns *”. On human DOR [2], the “% Stimulation DOR” value is listed as “dns *”. Besides, the “higher affinity for MOR than for DOR” value at human MOR [3] (ratio of Ki values) is “two-fold”. The “higher affinity for KOR than for DOR” value at human KOR [4] (ratio of Ki values) is listed as “eight-fold”. Besides, the values for the EC50 on human KOR [5] and at human MOR [6] were 11 nM and 43 nM, respectively. Also, the maximum response (Emax) at human KOR [5] turned out to be 89%; at human MOR [6], 60%.

The molecule `Cc1cc(O)cc(C)c1C[C@H](N)C(=O)N1CCc2ccc(CN3CCc4ccccc4C3)cc2C1` [Compound 8w, (S)-2-amino-1-(7-((3,4-dihydroisoquinolin-2(1H)-yl)methyl)-3,4-dihydroisoquinolin-2(1H)-yl)-3-(4-hydroxy-2,6-dimethylphenyl)propan-1-one] yielded an inhibition constant (Ki) at human DOR [1] of 2.3 nM. In addition, on human DOR [2], the “EC50 DOR” value is recorded as “dns *” and the “% Stimulation DOR” value is “dns *”. The same molecule had a Ki at human MOR [3] of 0.6 nM. The “selectivity for MOR and DOR over KOR” value on human KOR [4] (binding selectivity) was determined as 18 fold. The molecule also had an inhibitory constant (Ki) on human KOR [4] of 42 nM. On human KOR [5], the “EC50 KOR” value is “dns” and the “% Stimulation KOR” value was “dns”. Besides, at human MOR [6], the concentration giving a half-maximal response (EC50) is 8.2 nM and the Emax came out at 85%.

With `Cc1cc(O)cc(C)c1C[C@H](N)C(=O)N1CCc2ccc(CN3CCCCC3)cc2C1` [Compound 8l, (S)-2-amino-3-(4-hydroxy-2,6-dimethylphenyl)-1-(7-(piperidin-1-ylmethyl)-3,4-dihydroisoquinolin-2(1H)-yl)propan-1-one], affinity on human DOR [1] was put at a Ki of 87 nM. For the same molecule, on human DOR [2], the “EC50 DOR” value is given as “dns” and the “% Stimulation DOR” value is given as “dns”. The molecule further yielded an inhibition constant (Ki) at human MOR [3] of 4.7 nM. This molecule displayed a Ki on human KOR [4] of 29 nM. Moreover, on human KOR [5], the “EC50 KOR” value is reported as “dns” and the “% Stimulation KOR” value is “dns”. On human MOR [6], a half-maximal response (EC50) required 845 nM and the Emax worked out at 34%.

Consider `Cc1cc(O)cc(C)c1C[C@H](N)C(=O)N1CCc2ccc(CN3CCCc4ccccc43)cc2C1` [Compound 8x, (S)-2-amino-1-(7-((3,4-dihydroquinolin-1(2H)-yl)methyl)-3,4-dihydroisoquinolin-2(1H)-yl)-3-(4-hydroxy-2,6-dimethylphenyl)propan-1-one], for which the inhibition constant (Ki) is 6.6 nM on human DOR [1], 7.2 nM at human MOR [3] and 7.1 nM on human KOR [4]. For the same molecule, the “EC50 DOR” value on human DOR [2] was “dns *”. Also, the “% Stimulation DOR” value at human DOR [2] was “dns *”. The figures for the EC50 on human KOR [5] and on human MOR [6] were 375 nM and 73 nM, respectively. For the same molecule, the Emax on human KOR [5] was found to be 67%; on human MOR [6], 65%.

Regarding `Cc1cc(O)cc(C)c1C[C@H](N)C(=O)N1CCc2ccc(Cc3ccccc3C(F)(F)F)cc2C1` [Compound 8c, (S)-2-amino-3-(4-hydroxy-2,6-dimethylphenyl)-1-(7-(2-(trifluoromethyl)benzyl)-3,4-dihydroisoquinolin-2(1H)-yl)propan-1-one], the Ki turned out to be 4.9 nM on human DOR [1], 4.3 nM at human MOR [3] and 2.6 nM at human KOR [4]. The 50% effective concentration (EC50) at human DOR [2] amounted to 342 nM; on human KOR [5], 173 nM; on human MOR [6], 53 nM. In addition, at human DOR [2], the “% Stimulation DOR” value is on record as 24 (3) %. The maximum response (Emax) is 81% on human KOR [5] and 76% at human MOR [6].

Consider `Cc1cc(O)cc(C)c1C[C@H](N)C(=O)N1CCc2ccc(Cc3cccc4cccnc34)cc2C1` [Compound 8q, (S)-2-amino-3-(4-hydroxy-2,6-dimethylphenyl)-1-(7-(quinolin-8-ylmethyl)-3,4-dihydroisoquinolin-2(1H)-yl)propan-1-one], for which the Ki at human DOR [1] turned out to be 0.46 nM; at human MOR [3] it was 1.4 nM; at human KOR [4], 19 nM. The values for the EC50 on human DOR [2], on human KOR [5] and on human MOR [6] were 1.2 nM, 258 nM and 24 nM, respectively. Further, the “% Stimulation DOR” value at human DOR [2] is recorded as 23 (4) %. The maximal effect (Emax) at human KOR [5] is 25%; on human MOR [6], 63%.
